Test [1] deals with T1, calf eye lens α-crystallin (Bos taurus, UniProt P02470+P02510).
T1 sequence (P02470 1-173): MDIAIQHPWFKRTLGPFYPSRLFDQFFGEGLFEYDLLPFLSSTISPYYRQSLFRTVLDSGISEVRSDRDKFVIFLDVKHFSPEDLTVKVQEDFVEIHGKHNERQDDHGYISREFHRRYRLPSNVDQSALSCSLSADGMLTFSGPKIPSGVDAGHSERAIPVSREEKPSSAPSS
T1 sequence (P02510 1-175): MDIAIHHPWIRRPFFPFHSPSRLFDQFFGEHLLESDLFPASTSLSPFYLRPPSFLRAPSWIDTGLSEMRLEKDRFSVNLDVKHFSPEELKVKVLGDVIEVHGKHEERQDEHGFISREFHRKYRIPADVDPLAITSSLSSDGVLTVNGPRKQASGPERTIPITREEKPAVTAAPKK
In words: DTT-induced aggregation of insulin, chaperone-like activity of α-crystallin. Conditions: for effect on the chaperone-like activity of α-crystallin: α-crystallin 0.1 mg/ml, insulin 0.2 mg/ml; for percent protection offered by α-crystallin: 36% in the absence of Lys.HCl; for protection offered by α-crystallin: 25° C., α-crystallin to insulin 1:1 (w/w).
Description: (§1) All chaperone assays were carried out in 10 mM phosphate buffer. pH 7.4, containing 100 mM NaCl (Buffer A). […] Insulin (0.2 mg/ml) was then added and reduction of insulin was initiated by adding 20 ρL of 1 M DTT to 1.2 ml of the sample. The extent of aggregation of insulin was measured as a function of time by monitoring 90° scattering at 465 nm using a Hitachi F-4000 fluorescence spectrophotometer. The excitation and emission band passes were set at 3 nm.

The target in test [2] is Hsp 16.3 (Mycobacterium tuberculosis, UniProt P9WMK1). Particulars: Gdn.HCl-induced perturbation of structure; cited from earlier work.
Hsp 16.3, sequence (P9WMK1 whole entry): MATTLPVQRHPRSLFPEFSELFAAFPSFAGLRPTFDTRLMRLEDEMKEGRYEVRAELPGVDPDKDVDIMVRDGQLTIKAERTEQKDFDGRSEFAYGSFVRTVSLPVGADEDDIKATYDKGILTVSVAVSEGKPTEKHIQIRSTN
Test [3] has as its target T2, α-crystallin (Homo sapiens, UniProt P02489+P02511).
T2 sequence (P02489 1-173): T1 sequence (P02470 1-173) with I3V, A4T, E91D, S142C, P147Q, S148T, V150L, G153T, S155A, S168T
T2 sequence (P02511 1-175): T1 sequence (P02510 1-175) with A40T, I61F, A132T, A152V
Conditions: 0.8-1.0 M Gdn.HCl; cited from earlier work.

Test [4] relates to Shumiya cataract rats. Conditions: fed orally; cited from earlier work.
For test [5], the system named is diabetic rats. Conditions: rat, in vivo; cited from earlier work.
Test [6] concerns the target T3, α-crystallin (Bos taurus, UniProt P02470+P02510).
T3 construct: α-Crystallin was purified from calf eye lenses previously described (24); from tissue; host or cells: calf eye lenses
T3 sequence (P02470 1-173): T1 sequence (P02470 1-173)
T3 sequence (P02510 1-175): T1 sequence (P02510 1-175)
The test is described as follows: Glycerol gradient sedimentation. Also on record: species or system calf. The procedure:
Glycerol gradient centrifugation was carried out essentially as described by Lambert et al. (43). α-Crystallin, α-A- or α-B-crystallin (2 mg/ml) was incubated in 50 mM Tris HCl buffer (pH 7.4) containing 100 mM NaCl, 1 mM EDTA alone or in the presence of 300 mM Arg.HCl for 2 hours at 37° C. The samples (0.5 ml) were loaded on top of a 12 ml linear grddient of glycerol (10-40%) made in 50 mM Tris-HCl buffer, pH 7.4, containing 100 mM NaCl and 1 mM EDTA. Arg.HCl-treated α-crystllin samples were run in the gradient also containing 300 mM Arg.HCl. The tubes were centriflged for 18 hours at 30000 rpm in a Beckman SW41 rotor at 4° C. Fractions (0.3 ml) were withdrawn from the top using a Haake-Buchler Auto Densi-Flowt HC gradient former/remover and optical density at 280 nm of the fractions were measured using a Shimadzu W-1601 spectrophotometer. To estimate the molecular masses of the α-crystallin samples, proteins with defined molecular masses such as thyroglobulin (669 kDa), catalase (240 kDa) and aldolase (158 kDa) were used.

For test [7], the target named is T3, α-crystallin. The test is described as follows: Circular dichroism spectra. Also on record: species or system calf. The protocol: Circular dichroism spectra were recorded using a Jasco J-715 Spectropolarimeter. All spectra are the average of 4 accumulations.
Test [8] has as its target T3, α-crystallin. In words: Intrinsic tryptophan fluorescence. Also on record: species or system calf. Conditions: 37° C., in the presence of Arg.HCl. The procedure: Fluorescence spectra were recorded using a Hitachi F-4000 Fluorescence Spectrophotometerequipped with a thermostated cuvette holder. All the studies were performed at 37° C. All spectra were recorded in the corrected spectrum mode. The nirinsic tryptophan fluorescence spectra of α-crystllin (0.2 mg/ml) in Buffer A alone or in the buffer containing the required concentrations of Arg.HCl were recorded by exciting the sample at 295 nm with the excitation and emission band passes set at 3 nm.

The target of test [9] is T4, recombinant human αA-crystallin (Homo sapiens, UniProt P02489).
T4 construct: made in house; host or cells: Escherichia coli
T4 sequence (P02489 1-173): T1 sequence (P02470 1-173) with I3V, A4T, E91D, S142C, P147Q, S148T, V150L, G153T, S155A, S168T
The test is described as follows: DTT-induced aggregation of insulin, chaperone-like activity of αA-crystallin. In kind it is biochemical. Particulars: 37° C., 1:2 (w/w) to insulin.
Description: as §1

The target in test [10] is T5, recombinant human αB-crystallin (Homo sapiens, UniProt P02511).
T5 construct: made in house; host or cells: Escherichia coli
T5 sequence (P02511 1-175): T1 sequence (P02510 1-175) with A40T, I61F, A132T, A152V
In words: DTT-induced aggregation of insulin, chaperone-like activity of αB-crystallin. It is filed as biochemical. Particulars: 37° C., 1:4 (w/w) to insulin.
Description: as §1

The target of test [11] is T3, α-crystallin. In words: Thermally induced aggregation of ξ-crystallin at 43° C., chaperone activity of α-crystallin. It is filed as biochemical, calf. Conditions: 1:4 (w/w) α- to ξ-crystallin, preincubation with 100 mM Arg.HCl, 53% without. The protocol: Chaperone activity measurement of α-crystallin towards the thermal aggregation of ε-crystallin was performed as described in our earlier study (25). Buffer A either in the absence or in the presence of α-crystallin (0.025 mg/ml) and required concentrations of Arg.HCl was incubated at 43° C. for 3 min in the thermostated cuvette holder of the fluorescence spectrophotometer. ε-Crystallin was then added to a final concentration of 0.1 mg/mL The extent of aggregation was monitored as a function of time by measring the scalr of 465 nm light as descnbed above, […]

For test [12], the target named is T6, R116C αA-crystallin (Homo sapiens, UniProt P02489, R116C).
T6 sequence (P02489 1-173 R116C): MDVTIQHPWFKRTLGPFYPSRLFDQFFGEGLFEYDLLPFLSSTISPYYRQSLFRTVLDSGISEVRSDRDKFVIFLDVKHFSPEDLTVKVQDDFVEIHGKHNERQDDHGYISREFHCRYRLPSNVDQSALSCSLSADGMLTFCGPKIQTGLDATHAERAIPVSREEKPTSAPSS
In kind it is biochemical. Particulars: 500 mM, data not shown.

For test [13], the target named is T3, α-crystallin. The test is described as follows: ANS binding fluorescence. Also on record: species or system calf. Particulars: 37° C., 100 mM Arg.HCl. The protocol:
To study the binding of the hydrophobic probe, ANS, to α-crystallin, 12 uL of 10 mM methanolic solution of ANS was added to 1.2 ml of a 0.5 mg/ml solution of α-crystallin in Buffer A alone or in the buffer containing the required concentrations of Arg.HCl. The samples were excited at 365 nm and emission spectra recorded from 400-600 nm at 37° C. […] All spectra were corrected for the respective blanks. Spectra were recorded in the corrected spectrum mode.

Test [14] has as its system insulin. The test is described as follows: DTT-induced aggregation of insulin without α-crystallin. It is filed as biochemical. Conditions: 37° C., no α-crystallin.
Description: as §1
Test [15] concerns the target T7, R120G αB-crystallin (Homo sapiens, UniProt P02511, R120G).
T7 sequence (P02511 1-175 R120G): T1 sequence (P02510 1-175) with A40T, I61F, R120G, A132T, A152V
In kind it is biochemical. Particulars: 37° C., 0.5:1 ratio to insulin, 300 mM Arg.HCl; negative protection without.
Description: as §1

Changes are numbered by the printed parent chain. Entries after “also recorded” stand apart in the source; their conditions may differ. Counter-ions that a name gives are not always drawn.

Regarding `N=C(N)N` [Gdn.HCl, guanidine hydrochloride], the “effect on the chaperone-like activity of α-crystallin” value (“effect … of α-crystallin” below) in test [1] (37° C., hydrochloride) is given as “comparable”. The “chaperone-like activity of Hsp 16.3” value in [2] is “enhanced”. In addition, in [3], the “chaperone-like activity of α-crystallin” value is “enhancement in its chaperone-like activity”.

Consider `N=C(N)NN` [aminoguanidine], for which, in test [4], the “opacification of the lens” value was “inhibited the opacification of the lens”. In addition, the cataract formation result in [5] was “inhibit cataract formation”.

Consider `Cl.NCCCC[C@H](N)C(=O)O` [Lys.HCl, Lysine hydrochloride], for which, in [6] (data not shown), the “size of α-crystallin in the presence of Lys.HCl” value was “change in the near-UV CD spectrum and size”. Further, the “near-UV CD spectrum of α-crystallin in the presence of Lys.HCl” value in [7] (data not shown) is reported as “change in the near-UV CD spectrum”. Further, the “percent protection offered by α-crystallin” value is given as 17% in test [1] (37° C., 100 mM Lys.HCl) and “about 8%” in test [1] (37° C., 300 mM Lys.HCl). The “effect … of α-crystallin” value in test [1] (37° C., hydrochloride) is given as “did not enhance; also recorded: decreased the activity”.

With `Cl.N=C(N)NCCCC(N)C(=O)O` (racemic) [DL-Arg.HCl, DLarginine hydrochloride], the “far-UV CD spectra, secondary structure of α-crystallin” value in test [7] (37° C., DL-Arg.HCl) is on record as “is not altered”.

Regarding `Cl.N=C(N)NCCC[C@H](N)C(=O)O` [Arg.HCl, Arginine hydrochloride], the “half-width of the sedimentation profile of α-crystallin” value in test [6] (300 mM Arg.HCl, 8.75 in the absence) was 6.25 x-axis units. Also, the “molecular mass of α-crystallin” value in test [6] (300 mM Arg.HCl, ~700 kDa in the absence) was about 360 kDa. Further, the “intrinsic tryptophan fluorescence spectrum of α-crystallin” value in test [8] is “did not change considerably”. Besides, the “near-UV CD spectra of α-crystallin” value in test [7] (37° C., 100, 200, 300 mM Arg.HCl, region 270-290 nm) is on record as “subtle conformational changes at the tertiary structural level”. In addition, the “protection offered by α-crystallin” value is recorded as 28% in test [1] (100 mM Arg.HCl, approximately 13% without) and “almost completely prevented” in test [1] (300 mM Arg.HCl). Moreover, the “prevention of aggregation of insulin by α-crystallin” value in test [1] (37° C., 1:2 (w/w) α-crystallin:insulin, 200 mM Arg.HCl, ~36% without additive) is recorded as “completely”. The “effect … of α-crystallin” value in test [1] (37° C.) was “comparable”. Also, in [9], the “effect on the chaperone-like activity of αA-crystallin” value is “enhanced the activity”. Besides, in test [10], the “effect on the chaperone-like activity of αB-crystallin” value is recorded as “enhanced the activity”. The “protective ability of α-crystallin against aggregation of ξ-crystallin” value in [11] is on record as about 81%. Moreover, the “effect on the activity of R116C αA-crystallin” value in test [12] was “did not enhance”. In addition, in test [13], the “increase in the fluorescence intensity of ANS at the emission maximum” value is reported as about 38%. The “aggregation of insulin, additive alone” value in test [14] is listed as “significantly increased aggregation”. Besides, in test [15], the “extent of protection by R120G αB-crystallin” value is given as about 75%.

These data come from patent publication US20070009956A1 (Council of Scientific and Industrial Research, priority 2003, published 2007).
